Structures can show the parent of a compound that is named as a salt.
These compounds were tested against T1, human V1a receptor (Homo sapiens, UniProt P37288) (assay: human V1a receptor binding studies (3H-Vasopressin, SPA beads)). Settings: membranes from HEK293 cells transiently transfected with human V1a receptor, Ki calculated from IC50 by the Cheng-Prussoff equation, read-out: pKi (hV1a) (converted).
T1 construct: expressed in transfected cells; host or cells: HEK293 cells, transiently transfected; cell membranes
T1 sequence (P37288 whole entry): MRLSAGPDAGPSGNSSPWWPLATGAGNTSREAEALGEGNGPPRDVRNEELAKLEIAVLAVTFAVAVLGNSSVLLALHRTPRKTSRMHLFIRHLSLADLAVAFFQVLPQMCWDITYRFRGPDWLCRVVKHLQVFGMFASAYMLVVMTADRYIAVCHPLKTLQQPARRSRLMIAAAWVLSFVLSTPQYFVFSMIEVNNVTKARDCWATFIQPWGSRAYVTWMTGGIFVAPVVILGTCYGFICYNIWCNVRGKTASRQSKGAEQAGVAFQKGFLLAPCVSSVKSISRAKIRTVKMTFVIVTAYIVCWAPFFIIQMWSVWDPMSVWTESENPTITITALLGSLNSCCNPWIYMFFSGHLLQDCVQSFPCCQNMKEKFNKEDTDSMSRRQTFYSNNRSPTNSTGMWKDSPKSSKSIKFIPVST
Description: The human V1a receptor was cloned by RT-PCR from total human liver RNA. The coding sequence was subcloned in an expression vector after sequencing to confirm the identity of the amplified sequence. […] Cell membranes were prepared from HEK293 cells transiently transfected with the expression vector and grown in 20 liter fermenters with the following protocol.
50 g of cells are resuspended in 30 ml freshly prepared ice cold Lyses buffer (50 mM HEPES, 1 mM EDTA, 10 mM magnesium dichloride adjusted to pH=7.4+complete cocktail of protease inhibitor (Roche Diagnostics)). Homogenized with Polytron for 1 min and solicited on ice for 2×2 minutes at 80% intensity (Vibrate solicitor). The preparation is centrifuged 20 min at 500 g at 4° C., the pellet is discarded and the supernatant centrifuged 1 hour at 43′000 g at 4° C. (19′000 rpm). The pellet is resuspended in 12.5 ml Lyses buffer+12.5 ml sucrose 20% and homogenized using a Polytron for 1-2 min. The protein concentration is determined by the Bradford method and aliquots are stored at −80° C. until use. For binding studies 60 mg Yttrium silicate SPA beads (Habersham®) are mixed with an aliquot of membrane in binding buffer (50 mM Tris, 120 mM sodium chloride, 5 mM potassium chloride, 2 mM calcium dichloride, 10 mM magnesium dichloride) for 15 minutes with mixing. 50 μl of bead/membrane mixture is then added to each well of a 96 well plate, followed by 50 μl of 4 nM 3H-Vasopressin (American Radiolabeled Chemicals). For total binding measurement 100 μl of binding buffer are added to the respective wells, for non-specific binding 100 μl of 8.4 mM cold vasopressin and for compound testing 100 μl of a serial dilution of each compound in 2% dimethyl sulfoxide. The plate is incubated 1 h at room temperature, centrifuged 1 min at 1000 g and counted on a Packard Top-Count. Non-specific binding counts are subtracted from each well and data is normalized to the maximum specific binding set at 100%. To calculate an IC50 the curve is fitted using a non-linear regression model (XLfit) and the Ki is calculated using the Cheng-Prussoff equation.

Going from `CN1Cc2cc(Cl)ccc2-n2c(nnc2[C@H]2CC[C@H](c3cccnc3F)CC2)C1` [Example 56, trans-8-Chloro-1-[4-(2-fluoro-pyridin-3-yl)-cyclohexyl]-5-methyl-5,6-dihydro-4H-2,3,5,10b-tetraaza-benzo[e]azulene] to `CN1Cc2cc(Cl)ccc2-n2c(nnc2[C@H]2CC[C@H](c3ncccn3)CC2)C1` [Example 60, trans-8-Chloro-5-methyl-1-(4-pyrimidin-2-yl-cyclohexyl)-5,6-dihydro-4H-2,3,5,10b-tetraaza-benzo[e]azulene], the Ki falls from 8.13 nM to 2.19 nM (3.7-fold).

Going from `CC(C)(C)OC(=O)N1Cc2cc(Cl)ccc2-n2c(nnc2[C@H]2CC[C@H](c3ncccn3)CC2)C1` [Example 57, trans-8-Chloro-1-(4-pyrimidin-2-yl-cyclohexyl)-4H,6H-2,3,5,10b-tetraaza-benzo[e]azulene-5-carboxylic acid tert-butyl ester] to `CC(C)(C)OC(=O)N1Cc2cc(Cl)ccc2-n2c(nnc2[C@H]2CC[C@@H](c3ncccn3)CC2)C1` [Example 58, cis-8-Chloro-1-(4-pyrimidin-2-yl-cyclohexyl)-4H,6H-2,3,5,10b-tetraaza-benzo[e]azulene-5-carboxylic acid tert-butyl ester], the Ki rises from 1.58 nM to 20.4 nM (13-fold).

Going from `Clc1ccc2c(c1)CNCc1nnc([C@H]3CC[C@H](c4ncccn4)CC3)n1-2` [Example 59, trans-8-Chloro-1-(4-pyrimidin-2-yl-cyclohexyl)-5,6-dihydro-4H-2,3,5,10b-tetraaza-benzo[e]azulene] to `Clc1ccc2c(c1)CNCc1nnc([C@H]3CC[C@@H](c4ncccn4)CC3)n1-2` [Example 61, cis-8-Chloro-1-(4-pyrimidin-2-yl-cyclohexyl)-5,6-dihydro-4H-2,3,5,10b-tetraaza-benzo[e]azulene], the Ki rises from 9.33 nM to 427 nM (46-fold).

First: CN1Cc2cc(Cl)ccc2-n2c(nnc2[C@H]2CC[C@@H](c3ncccn3)CC2)C1 [Example 62, cis-8-Chloro-5-methyl-1-(4-pyrimidin-2-yl-cyclohexyl)-5,6-dihydro-4H-2,3,5,10b-tetraaza-benzo[e]azulene]
Second: CN1Cc2cc(Cl)ccc2-n2c(nnc2[C@H]2CC[C@H](c3cnccn3)CC2)C1 [Example 71, trans-8-Chloro-5-methyl-1-(4-pyrazin-2-yl-cyclohexyl)-5,6-dihydro-4H-2,3,5,10b-tetraaza-benzo[e]azulene]
The Ki of the first is 56-fold higher: 95.5 nM for the first, 1.7 nM for the second.

Going from `Cc1cc(C)nc([C@H]2CC[C@H](c3nnc4n3-c3ccc(Cl)cc3CN(C(=O)OC(C)(C)C)C4)CC2)n1` [Example 63, trans-8-Chloro-1-[4-(4,6-dimethyl-pyrimidin-2-yl)-cyclohexyl]-4H,6H-2,3,5,10b-tetraaza-benzo[e]azulene-5-carboxylic acid tert-butyl ester] to `Cc1cnc(C)c([C@H]2CC[C@H](c3nnc4n3-c3ccc(Cl)cc3CN(C(=O)OC(C)(C)C)C4)CC2)n1` [Example 78, trans-8-Chloro-1-[4-(3,6-dimethyl-pyrazin-2-yl)-cyclohexyl]-4H,6H-2,3,5,10b-tetraaza-benzo[e]azulene-5-carboxylic acid tert-butyl ester], the Ki rises from 0.398 nM to 0.794 nM (2-fold).

Going from `Cc1cc(C)nc([C@H]2CC[C@H](c3nnc4n3-c3ccc(Cl)cc3CNC4)CC2)n1` [Example 64, trans-8-Chloro-1-[4-(4,6-dimethyl-pyrimidin-2-yl)-cyclohexyl]-5,6-dihydro-4H-2,3,5,10b-tetraaza-benzo[e]azulene hydrochloride] to `Cc1cc(C)nc([C@H]2CC[C@H](c3nnc4n3-c3ccc(Cl)cc3CN(C)C4)CC2)n1` [Example 65, trans-8-Chloro-1-[4-(4,6-dimethyl-pyrimidin-2-yl)-cyclohexyl]-5-methyl-5,6-dihydro-4H-2,3,5,10b-tetraaza-benzo[e]azulene], the Ki falls from 18.6 nM to 2.29 nM (8.1-fold).

Going from `Cc1nccc([C@H]2CC[C@H](c3nnc4n3-c3ccc(Cl)cc3CN(C(=O)OC(C)(C)C)C4)CC2)n1` [Example 66, trans-8-Chloro-1-[4-(2-methyl-pyrimidin-4-yl)-cyclohexyl]-4H,6H-2,3,5,10b-tetraaza-benzo[e]azulene-5-carboxylic acid tert-butyl ester] to `Cc1cncc([C@H]2CC[C@H](c3nnc4n3-c3ccc(Cl)cc3CN(C(=O)OC(C)(C)C)C4)CC2)n1` [Example 72, trans-8-Chloro-1-[4-(6-methyl-pyrazin-2-yl)-cyclohexyl]-4H,6H-2,3,5,10b-tetraaza-benzo[e]azulene-5-carboxylic acid tert-butyl ester], the Ki falls from 9.77 nM to 1.2 nM (8.1-fold).

Compared with `Cc1nccc([C@H]2CC[C@H](c3nnc4n3-c3ccc(Cl)cc3CNC4)CC2)n1` [Example 67, trans-8-Chloro-1-[4-(2-methyl-pyrimidin-4-yl)-cyclohexyl]-5,6-dihydro-4H-2,3,5,10b-tetraaza-benzo[e]azulene], `Cc1nccc([C@H]2CC[C@H](c3nnc4n3-c3ccc(Cl)cc3CN(C)C4)CC2)n1` [Example 68, trans-8-Chloro-5-methyl-1-[4-(2-methyl-pyrimidin-4-yl)-cyclohexyl]-5,6-dihydro-4H-2,3,5,10b-tetraaza-benzo[e]azulene] is 8.7-fold lower in Ki: 1100 nM for the first, 126 nM for the second.

First: CC(C)(C)OC(=O)N1Cc2cc(Cl)ccc2-n2c(nnc2[C@H]2CC[C@H](c3cnccn3)CC2)C1 [Example 69, trans-8-Chloro-1-(4-pyrazin-2-yl-cyclohexyl)-4H,6H-2,3,5,10b-tetraaza-benzo[e]azulene-5-carboxylic acid tert-butyl ester]
Second: Cc1nccnc1[C@H]1CC[C@H](c2nnc3n2-c2ccc(Cl)cc2CN(C(=O)OC(C)(C)C)C3)CC1 [Example 75, trans-8-Chloro-1-[4-(3-methyl-pyrazin-2-yl)-cyclohexyl]-4H,6H-2,3,5,10b-tetraaza-benzo[e]azulene-5-carboxylic acid tert-butyl ester]
The Ki of the first is 2-fold lower: 0.603 nM for the first, 1.2 nM for the second.

Going from `Clc1ccc2c(c1)CNCc1nnc([C@H]3CC[C@H](c4cnccn4)CC3)n1-2` [Example 70, trans-8-Chloro-1-(4-pyrazin-2-yl-cyclohexyl)-5,6-dihydro-4H-2,3,5,10b-tetraaza-benzo[e]azulene] to `Cc1cncc([C@H]2CC[C@H](c3nnc4n3-c3ccc(Cl)cc3CNC4)CC2)n1` [Example 73, trans-8-Chloro-1-[4-(6-methyl-pyrazin-2-yl)-cyclohexyl]-5,6-dihydro-4H-2,3,5,10b-tetraaza-benzo[e]azulene], the Ki rises from 15.1 nM to 55 nM (3.6-fold).

Compared with `Cc1cncc([C@H]2CC[C@H](c3nnc4n3-c3ccc(Cl)cc3CN(C)C4)CC2)n1` [Example 74, trans-8-Chloro-5-methyl-1-[4-(6-methyl-pyrazin-2-yl)-cyclohexyl]-5,6-dihydro-4H-2,3,5,10b-tetraaza-benzo[e]azulene], `Cc1nccnc1[C@H]1CC[C@H](c2nnc3n2-c2ccc(Cl)cc2CN(C)C3)CC1` [Example 77, trans-8-Chloro-5-methyl-1-[4-(3-methyl-pyrazin-2-yl)-cyclohexyl]-5,6-dihydro-4H-2,3,5,10b-tetraaza-benzo[e]azulene] is 2.2-fold lower in Ki: 11.2 nM for the first, 5.13 nM for the second.

Compared with `Cc1nccnc1[C@H]1CC[C@H](c2nnc3n2-c2ccc(Cl)cc2CNC3)CC1` [Example 76, trans-8-Chloro-1-[4-(3-methyl-pyrazin-2-yl)-cyclohexyl]-5,6-dihydro-4H-2,3,5,10b-tetraaza-benzo[e]azulene], `Cc1cnc(C)c([C@H]2CC[C@H](c3nnc4n3-c3ccc(Cl)cc3CNC4)CC2)n1` [Example 79, trans-8-Chloro-1-[4-(3,6-dimethyl-pyrazin-2-yl)-cyclohexyl]-5,6-dihydro-4H-2,3,5,10b-tetraaza-benzo[e]azulene hydrochloride] is 6.6-fold lower in Ki: 44.7 nM for the first, 6.76 nM for the second.

Reference: patent publication US8492376B2, “Heteroaryl-cyclohexyl-tetraazabenzo[e]azulenes” (Hoffmann-La Roche Inc., priority 2010, dated 2013)
